# Measurements taken from patent US20250163057A1, “DCN-1 MODULATING COMPOUNDS AND METHODS OF USE THEREOF” (Cellarity, Inc., priority 2023, published 2025).
# pEC50, pIC50: −log10 of the molar value.
# Legend:
# [1] = test system: fetal hemoglobin gene HBG1; test: HBG1 Nanostring Assay in CD34+ HSPC erythroid differentiation culture; type: cell-based, human; conditions: for Nanostring Ymax obs (%): relative to a control compound (C1); for pEC50: HBG1 induction, Day10 of erythroid differentiation
# Outline: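 HBG1 counts came from direct nCounter hybridization (67° C, 22 h) of day-10 lysates, normalized to ERCC positive controls and a housekeeping gene, giving EC50 and Ymax versus a reference compound. Compounds in 0.1% DMSO were present from day −2 while cells underwent EPO/SCF/IL-3 erythroid differentiation, with IL-3 dropped at day 7, at 37° C.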
# [2] = test system: Cullin-3 (CUL3) neddylation; test: AlphaLISA assay for Cullin-3 (CUL3) neddylation in TF 1 cells; type: cell-based; conditions: 3 hours treatment
# Outline: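 Neddylated CUL3 was quantified by AlphaLISA in lysates of TF 1 cells exposed for 3 h to test compound in IMDM without supplements. Percent inhibition set between vehicle and 1 μM DI-1548 positive control; IC50 derived by Hill-equation fitting of dose-response curves.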
# [3] = molecular target: DCN1 protein (Homo sapiens (Human), UniProt Q96GG9); test: Intact Protein MS Analysis with the RapidFire-TOF System (covalent adduct formation); type: binding; conditions: MS Emax; 400 nM DCN1, 3 hours at room temperature
# Outline: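 Tag-cleaved human DCN1 (400 nM) expressed in E. coli, in 25 mM Tris-HCl, 200 mM NaCl, 1 mM DTT, was incubated with 11 compound concentrations for 3 h at room temperature and quenched with 0.2% formic acid. Intact-protein Q-TOF MS with deconvolution detected the compound adduct mass.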
# Chain of DCN1 protein (Q96GG9 whole entry): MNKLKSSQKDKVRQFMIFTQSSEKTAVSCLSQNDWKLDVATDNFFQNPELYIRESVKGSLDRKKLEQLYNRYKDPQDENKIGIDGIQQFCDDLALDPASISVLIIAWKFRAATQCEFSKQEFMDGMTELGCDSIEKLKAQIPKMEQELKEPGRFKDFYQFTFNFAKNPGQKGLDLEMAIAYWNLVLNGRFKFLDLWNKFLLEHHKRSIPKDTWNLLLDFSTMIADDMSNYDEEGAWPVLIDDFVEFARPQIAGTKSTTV
SMILES,"pIC50 ([2]; Homo sapiens, TF-1, 3 h)","pEC50 ([1]; Homo sapiens, 240 h)",Nanostring Ymax obs (%) [1],% Adduct Formation [3],pEC50 [1],pIC50 [2]
C=C(CN1CCOCC1)C(=O)N(C)Cc1nn(-c2ccccc2)c2c1[C@H](c1ccc(F)cc1)[C@H](NC(=O)c1cccc(C(F)(F)F)c1)C(=O)N2CC (racemic) [Compound I-185],6.00 to 7.00,,++ (Nanostring Ymax greater than 50.0 and less than or equal to 100.0),+ (MS Emax % adduct formation greater than or equal to 0.0 and less than or equal to 30.0),,
CCN1C(=O)[C@@H](NC(=O)c2cccc(C(F)(F)F)c2)[C@@H](c2ccc(F)cc2)c2c(CNC(=O)[C@H](C)Br)nn(-c3ccccc3)c21 (racemic) [Compound I-180],6.00 to 7.00,< 6.00,+ (Nanostring Ymax greater than or equal to 0.0 and less than or equal to 50.0),+ (MS Emax % adduct formation greater than or equal to 0.0 and less than or equal to 30.0),,
CCN1C(=O)[C@@H](NC(=O)c2cccc(C(F)(F)F)c2)[C@@H](c2ccc(F)cc2)c2c([C@@H](C)NC(=O)CCl)nn(-c3ccccc3)c21 (mixture of isomers) [Compound I-190],< 6.00,< 6.00,++ (Nanostring Ymax greater than 50.0 and less than or equal to 100.0),+ (MS Emax % adduct formation greater than or equal to 0.0 and less than or equal to 30.0),,
CCN1C(=O)[C@@H](NC(=O)c2cccc(C(F)(F)F)c2)[C@@H](c2ccc(F)cc2)c2c([C@@H](C)NC#N)nn(-c3ccccc3)c21 (mixture of isomers) [Compound I-167],,,++ (Nanostring Ymax greater than 50.0 and less than or equal to 100.0),+++ (MS Emax % adduct formation greater than 80.0 and less than or equal to 100.0),6.00 to 7.00,≥ 7.00
C=C(CN(C)C)C(=O)NCc1nn(-c2ccccc2)c2c1[C@H](c1ccc(F)cc1)[C@H](NC(=O)c1cccc(C(F)(F)F)c1)C(=O)N2CC (racemic) [Compound I-18],≥ 7.00,6.00 to 7.00,+ (Nanostring Ymax greater than or equal to 0.0 and less than or equal to 50.0),+++ (MS Emax % adduct formation greater than 80.0 and less than or equal to 100.0),,
CCN1C(=O)[C@@H](NC(=O)c2cccc(C(F)(F)F)c2)[C@@H](c2ccc(F)cc2)c2c(CNC(=O)[C@H](C)Cl)nn(-c3ccccc3)c21 (racemic) [Compound I-179],6.00 to 7.00,< 6.00,+ (Nanostring Ymax greater than or equal to 0.0 and less than or equal to 50.0),+ (MS Emax % adduct formation greater than or equal to 0.0 and less than or equal to 30.0),,

# Now from value to molecule, other results behind:
"pIC50 ([2]; Homo sapiens, TF-1, 3 h)","pEC50 ([1]; Homo sapiens, 240 h)",SMILES,Nanostring Ymax obs (%) [1],% Adduct Formation [3],pEC50 [1],pIC50 [2]
< 6.00,< 6.00,CCN1C(=O)[C@@H](NC(=O)c2cccc(C(F)(F)F)c2)[C@@H](c2ccc(F)cc2)c2c([C@@H](C)NC(=O)C(C)Br)nn(-c3ccccc3)c21 (stereo in doubt) [Compound I-197],++ (Nanostring Ymax greater than 50.0 and less than or equal to 100.0),+ (MS Emax % adduct formation greater than or equal to 0.0 and less than or equal to 30.0),,
≥ 7.00,,CCN1C(=O)[C@@H](NC(=O)c2cccc(C(F)(F)F)c2)[C@@H](c2ccc(F)cc2)c2c(CNC(=O)/C(C#N)=C/C(C)C)nn(-c3ccccc3)c21 (racemic) [Compound I-241],+ (Nanostring Ymax greater than or equal to 0.0 and less than or equal to 50.0),+++ (MS Emax % adduct formation greater than 80.0 and less than or equal to 100.0),,
6.00 to 7.00,≥ 7.00,C#CC(=O)N(C)Cc1nn(-c2ccccc2)c2c1[C@H](c1ccc(F)cc1)[C@H](NC(=O)c1cccc(C(F)(F)F)c1)C(=O)N2CC (racemic) [Compound I-201],+ (Nanostring Ymax greater than or equal to 0.0 and less than or equal to 50.0),+++ (MS Emax % adduct formation greater than 80.0 and less than or equal to 100.0),,
